Assay results from patent US20230094006A1, “PHARMACEUTICAL COMPOSITION CONTAINING MACROLIDE COMPOUND, PRODUCTION METHOD THEREFOR, AND METHOD USING SAME” (priority 2020, published 2023).
In brackets after ≈: the same amount, converted by molar mass. Like-named read-outs stand apart in the source and are kept apart here.

Key:
[1] = system: BCG (bacillus Calmette-Guerin) strain; type: in vivo, Mycobacterium bovis; details: mice, nasal infection 1×10^6 CFU BCG; 100 mg/kg oral for 6 days from day 4; sacrifice day 10; vs negative control
[2] = system: Mycobacterium tuberculosis (Mtb); experiment: Mouse tuberculosis infection model, viable Mycobacterium tuberculosis in lung tissue; type: in vivo; details: C57BL/6 mice, nasal infection 2×10^4 CFU; 100 mg/kg oral for 6 days from day 4; sacrifice day 10; vs PBS negative control, p<0.001
Method: C57BL/6 mice (n=16) were prepared to investigate the anti-tuberculous activity of arenicolide A. Mice were nasally infected with 2×10^4/CFU of Mycobacterium tuberculosis (Mtb), and the mice were randomly divided into two groups (each, n=8). From the 4th day, arenicolide A was orally administered at a dose of 100 mg/body weight kg for 6 days. Phosphate-buffered saline (PBS) was administered as a negative control. Mice were sacrificed on day 10 from the day of infection (FIG. 2A).

[3] = system: M. tuberculosis mc2 6230 strain; experiment: Resazurin microtiter assay (REMA), dose-response curve; type: cell-based; details: Mycobacterium tuberculosis, MC26230STRAIN, 120 h, M. tuberculosis mc2 6230, 7H9 liquid medium, 5 days at 37° C.
[4] = system: Mycobacterium tuberculosis Mtb H37Rv strain; experiment: Resazurin microtiter assay (REMA), standard strain
Method: MIC was measured by using a resazurin microtiter assay (REMA). Briefly, 100 μl of 7H9 liquid medium was added to each well of a 96-well microtiter plate, and two-fold serial dilutions of antibiotics were directly added to each well. Plates were covered and incubated for 5 days at 37° C. Resazurin (0.01% (w/v)) was added to each well and the plates were incubated overnight. Fluorescence intensity was measured by using a SpectraMax M3 Multi-Mode Microplate Reader (Molecular Devices, CA, USA) (ex. 560/em. 590 nm).

M. tuberculosis = experiment: Resazurin microtiter MIC, arenicolide A and ethambutol alone and combined; type: cell-based; details: Mycobacterium tuberculosis, 120 h
M. abscessus strain = experiment: Mouse non-tuberculous Mycobacterium infection model, viable cells in lung tissue; type: in vivo; details: mice, nasal infection 1×10^7 CFU M. abscessus; 100 mg/kg oral for 5 days from day 3; sacrifice day 7; vs negative control, p<0.001
Method: As described in Example 2-2, 57BL/6 mice were nasally infected with 1×10^7/CFU of M. abscessus strain. From the 3rd day, arenicolide A was orally administered at a dose of 100 mg/body weight kg for 5 days. As a negative control, 2.5% (v/v) DMSO and 2.5% (v/v) ethanol were administered. Mice were sacrificed on day 7 from the day of infection. The number of viable tubercle bacilli in the lung tissue was investigated, and the results are shown in FIG. 3 (each, n=6, ***: p<0.001).

| Compound | inhibitory activity against BCG bacteria (viable cells in lung tissue) [1] | number of viable Mycobacterium tuberculosis in the lung tissue [2] | MIC50 [3] | MIC50 [4] | MIC (M. tuberculosis) | number of viable cells in the lung tissue (M. abscessus strain) | MIC (M. tuberculosis; administered alone, Middlebrook 7H9 with ADC, 5 days at 37° C., resazurin, read-out: MIC) |
| --- | --- | --- | --- | --- | --- | --- | --- |
| CCC[C@@H]1O[C@@](C)([C@@H](O)C/C=C/[C@@H]2OC(=O)/C=C/C=C/[C@@H](OC)[C@H](O)/C=C/C(C)=C/C(C)CCC[C@@H](OC)[C@H](O)/C=C/C(C)=C/[C@@H](C)[C@H](O)[C@H]2OC)[C@H](O)[C@@H]1OC (some centres unmarked) [arenicolide C] | effective inhibitory activity |  |  |  |  |  |  |
| CCC[C@H](O)[C@@H](OC)[C@H]1O[C@]1(C)[C@@H](O)C/C=C/[C@@H]1OC(=O)/C=C/C=C/[C@@H](OC)[C@H](O)/C=C/C(C)=C/[C@@H](C)CCC[C@@H](OC)C(O)/C=C/C(C)=C/[C@@H](C)[C@H](O)[C@H]1OC (some centres unmarked) [arenicolide A] | effective inhibitory activity | significantly reduced | ~24.6 µM (≈ 19.8 µg/mL) | ~6.9 µM (≈ 5.55 µg/mL) | 0.78 µM | significantly decreased |  |
| CC[C@@H](CO)NCCN[C@@H](CC)CO [ethambutol, reference compound] |  |  |  |  |  |  | 3.2 µM |
